Results published in PMC8241751, “Influence of the Dabcyl group on the cellular uptake of cationic peptides: short oligoarginines as efficient cell-penetrating peptides” (Amino Acids, 2021).
One block for each compound: values may come before it.

Key:
Format in all cases: cell-based, human
HL-60 cells = assay: In vitro cytostatic activity (MTT) on HL-60
Protocol: The cells (HL-60 or MCF-7) were grown to confluency and were plated into 96-well plate with initial cell number of 5 × 10^3 per well. After 24 h incubation at 37 °C, cells were treated with the compounds at 1.28 × 10^–3–100 μM concentration range for 3 h in 200 μL final volume. Control cells were treated with serum free medium at 37 °C for 3 h. After incubation the cells were washed twice with serum free medium. For the analysis of the in vitro cytostatic effect, cells were cultured for an additional 72 h in serum containing medium. On day 4, MTT assay was carried out to determine the IC50 values of the compounds. Briefly, 45 μL of MTT solution was added to each well (2 mg/mL, dissolved in serum-free medium). Following the 4 h incubation, plates were centrifuged at 900 g for 5 min, and the supernatant was removed. The precipitated purple crystals were dissolved in 100 μL DMSO and the absorbance was determined at λ = 540 nm and λ = 620 nm using ELISA plate reader (iEMSReader, Labsystems, Finland). The percent of cytostasis was calculated using the following equation: Cytostatic effect (%) = [1 − (ODtreated/ODcontrol)] × 100; where ODtreated and ODcontrol correspond to the optical densities of the treated and the untreated control cells, respectively. In each case three independent experiments were carried out with four parallel measurements. […] The curves were defined using MicrocalTM Origin (version 9.2) software: cytostasis was plotted as a function of concentration, fitted to a sigmoidal curve, and based on this curve, the IC50 value was determined.

HeLa cells [1] = assay: Confocal microscopy of internalisation into HeLa cells; conditions: 37 °C
Protocol: HeLa cells (2.0 × 10^5 cells) seeded in 35-mm glass-bottomed dishes (Iwaki) were cultured at a 37 °C incubator for 24 h. The cells were then incubated with peptide in α-MEM( +) and α-MEM(–) for 30 min at 37 °C or 4 °C. After washing with PBS( +) containing 0.5% (w/v) heparin, intracellular distribution of the fluorescently-labelled peptides was analysed without fixing using a confocal microscope (FV1000, Olympus). For time-lapse imaging, the cells were placed at 37 °C in a microchamber (MI-IBC-IF, Olympus) attached on the stage of the inverted microscope. The cells were then treated with 5 µM of Dabcyl–Arg6–Lys(Rh)–NH2 or Dabcyl–Arg4–Lys(Cf)–NH2 in α-MEM( +) or α-MEM(–). Time 0 represents the image immediately after the addition of conjugates.

HeLa cells [2] = assay: Cellular uptake by flow cytometry on HeLa cells; conditions: 30 min; for Cellular uptake in the presence of serum: α-MEM(+), lowest studied concentration (2.5 μM)
Protocol: HeLa cells (8.0 × 10^4/well) in α-MEM( +) were cultured in 24-well microplates overnight at 37 °C. Cells were treated with fluorescently-labelled peptides (2.5, 5 and 10 μM) in α-MEM( +) and α-MEM without 10% BS [α-MEM(–)], respectively, for 30 min at 37 °C. After being washed with phosphate-buffered saline (PBS), cells were incubated with 0.01% trypsin in PBS for 10 min at 37 °C. The collected cells were then centrifuged at 800 g for 5 min at 4 °C, washed twice with PBS, and subjected to flow cytometry analysis (Attune NxT Flow Cytometer, ThermoFisher). Each sample was analysed over 10,000 events.

Compound: CN(C)c1ccc(/N=N/c2ccc(C(=O)N[C@@H](CCCNC(=N)N)C(=O)N[C@@H](CCCNC(=N)N)C(=O)N[C@@H](CCCNC(=N)N)C(=O)N[C@@H](CCCNC(=N)N)C(=O)N[C@@H](CCCNC(=N)N)C(=O)N[C@@H](CCCNC(=N)N)C(=O)N[C@@H](CCCCN)C(N)=O)cc2)cc1 [Dabcyl–Arg6–Lys–NH2]
IC50 (HL-60 cells; HL-60, 3 h incubation, then 3 days in serum-containing medium, MTT assay, ± sd, three independent experiments with four parallels): > 100 µM | Cytostatic effect on HL-60 cells (HL-60 cells; up to c = 100 μM): no cytostatic effect

Compound: CN(C)c1ccc(C(=O)N[C@@H](CCCNC(=N)N)C(=O)N[C@@H](CCCNC(=N)N)C(=O)N[C@@H](CCCNC(=N)N)C(=O)N[C@@H](CCCNC(=N)N)C(=O)N[C@@H](CCCNC(=N)N)C(=O)N[C@@H](CCCNC(=N)N)C(=O)N[C@@H](CCCCNC(=O)c2ccc3c(c2)C(=O)OC32c3ccc(O)cc3Oc3cc(O)ccc32)C(N)=O)cc1 [Dmab–Arg6–Lys(Cf)–NH2]
Effect on the cell viability (morphology, number of cells) (HeLa cells [1]; 1-20 μM, confocal microscopy): no effect on the cell viability

Cellular uptake in the presence of serum (HeLa cells [2]): undetectable
Compound: Ac–RRRRRRK(Rh)–NH2 [Ac–Arg6–Lys(Rh)–NH2, acetylated hexaarginine with carboxytetramethylrhodamine on lysine]
Intracellular distribution (HeLa cells [1]; α-MEM(–), 5 and 10 μM, 30 min): punctate distribution

Morphology of the cells (HeLa cells [1]; α-MEM(–), 5 and 10 μM, 30 min, cell number also decreased): dramatically changed | Internalisation in the absence of serum compared to serum (+) (HeLa cells [2]; 2.5 µM, 37 °C): twice | Cellular uptake, times higher than hexaarginine's (HeLa cells [2]; absence of serum, 2.5 µM, 37 °C): 3 times | Cellular uptake in the presence of serum (HeLa cells [2]): markedly pronounced
Compound: Dabcyl–RRRRRRK(Rh)–NH2 [Dabcyl–Arg6–Lys(Rh)–NH2, Dabcyl-modified hexaarginine with carboxytetramethylrhodamine on lysine]
Time needed to get well detectable signal with diffuse cytosolic distribution (HeLa cells [1]; 5 μM, α-MEM(+), time-lapse imaging): 25 min | Threshold concentration above which distribution becomes diffuse (HeLa cells [1]; 30 min, confocal microscopy): under 5 μM | Intracellular distribution (HeLa cells [1]; α-MEM(+) with serum, 10 µM, 30 min): diffuse cytosolic localisation | Intracellular distribution (HeLa cells [1]; α-MEM(–), 2.5 μM, 30 min): diffuse distribution pattern
